Data: patent US11787865B2, “Bifunctional molecules for lysosomal targeting and related compositions and methods” (The Board of Trustees of the Leland Stanford Junior …, priority 2018, dated 2023)

Key:
[1] = tested on: mouse IgG (IgG-AF647); assay: Cellular uptake of IgG-AF647 in HUH7 cells; assay type: cell-based; details: HUH7 cells incubated with inhibitor
Protocol: To assess whether a bifunctional molecule comprising ASGPR ligands could indeed shuttle cargo to lysosomes in hepatocytes, an assay schematically illustrated in FIG. 21 was employed. A bifunctional molecule comprising an anti-mouse IgG antibody conjugated to a poly(GalNAc-co-Ala) polymer was tested to determine whether the bifunctional molecule could shuttle extracellular fluorescent-labeled mouse IgG (IgG-AF647) into the intracellular compartment of hepatocytes. […] HEPG2 cells (hepatocellular carcinoma cell line) were incubated with 50 nM IgG-AF647 and 25 nM of anti-mouse conjugates for 1 hour. Cellular uptake was analyzed by flow cytometry. As shown by the bar graph, an approximately 8-fold increase in cell fluorescence was observed using the GalNAc-containing conjugate while the M6Pn-containing conjugate induced 2-fold increase over background.
Shown in FIG. 22 are results from the assay described for FIG. 21 but in HUH7 cells (another hepatocellular carcinoma cell line). […] In addition, controls were included in which the cells were incubated with M6PR or ASGPR inhibitors (monomeric M6P (mM6P) and monomeric GalNAc (mGalNAc), respectively).

[2] = biological target: cation independent M6PR (CIM6PR) (Homo sapiens, UniProt P11717); details: relative to mannose-6-phosphate glycans; cited from earlier work
[3] = cited from earlier work

Sequence of cation independent M6PR (CIM6PR) (P11717 41-2491): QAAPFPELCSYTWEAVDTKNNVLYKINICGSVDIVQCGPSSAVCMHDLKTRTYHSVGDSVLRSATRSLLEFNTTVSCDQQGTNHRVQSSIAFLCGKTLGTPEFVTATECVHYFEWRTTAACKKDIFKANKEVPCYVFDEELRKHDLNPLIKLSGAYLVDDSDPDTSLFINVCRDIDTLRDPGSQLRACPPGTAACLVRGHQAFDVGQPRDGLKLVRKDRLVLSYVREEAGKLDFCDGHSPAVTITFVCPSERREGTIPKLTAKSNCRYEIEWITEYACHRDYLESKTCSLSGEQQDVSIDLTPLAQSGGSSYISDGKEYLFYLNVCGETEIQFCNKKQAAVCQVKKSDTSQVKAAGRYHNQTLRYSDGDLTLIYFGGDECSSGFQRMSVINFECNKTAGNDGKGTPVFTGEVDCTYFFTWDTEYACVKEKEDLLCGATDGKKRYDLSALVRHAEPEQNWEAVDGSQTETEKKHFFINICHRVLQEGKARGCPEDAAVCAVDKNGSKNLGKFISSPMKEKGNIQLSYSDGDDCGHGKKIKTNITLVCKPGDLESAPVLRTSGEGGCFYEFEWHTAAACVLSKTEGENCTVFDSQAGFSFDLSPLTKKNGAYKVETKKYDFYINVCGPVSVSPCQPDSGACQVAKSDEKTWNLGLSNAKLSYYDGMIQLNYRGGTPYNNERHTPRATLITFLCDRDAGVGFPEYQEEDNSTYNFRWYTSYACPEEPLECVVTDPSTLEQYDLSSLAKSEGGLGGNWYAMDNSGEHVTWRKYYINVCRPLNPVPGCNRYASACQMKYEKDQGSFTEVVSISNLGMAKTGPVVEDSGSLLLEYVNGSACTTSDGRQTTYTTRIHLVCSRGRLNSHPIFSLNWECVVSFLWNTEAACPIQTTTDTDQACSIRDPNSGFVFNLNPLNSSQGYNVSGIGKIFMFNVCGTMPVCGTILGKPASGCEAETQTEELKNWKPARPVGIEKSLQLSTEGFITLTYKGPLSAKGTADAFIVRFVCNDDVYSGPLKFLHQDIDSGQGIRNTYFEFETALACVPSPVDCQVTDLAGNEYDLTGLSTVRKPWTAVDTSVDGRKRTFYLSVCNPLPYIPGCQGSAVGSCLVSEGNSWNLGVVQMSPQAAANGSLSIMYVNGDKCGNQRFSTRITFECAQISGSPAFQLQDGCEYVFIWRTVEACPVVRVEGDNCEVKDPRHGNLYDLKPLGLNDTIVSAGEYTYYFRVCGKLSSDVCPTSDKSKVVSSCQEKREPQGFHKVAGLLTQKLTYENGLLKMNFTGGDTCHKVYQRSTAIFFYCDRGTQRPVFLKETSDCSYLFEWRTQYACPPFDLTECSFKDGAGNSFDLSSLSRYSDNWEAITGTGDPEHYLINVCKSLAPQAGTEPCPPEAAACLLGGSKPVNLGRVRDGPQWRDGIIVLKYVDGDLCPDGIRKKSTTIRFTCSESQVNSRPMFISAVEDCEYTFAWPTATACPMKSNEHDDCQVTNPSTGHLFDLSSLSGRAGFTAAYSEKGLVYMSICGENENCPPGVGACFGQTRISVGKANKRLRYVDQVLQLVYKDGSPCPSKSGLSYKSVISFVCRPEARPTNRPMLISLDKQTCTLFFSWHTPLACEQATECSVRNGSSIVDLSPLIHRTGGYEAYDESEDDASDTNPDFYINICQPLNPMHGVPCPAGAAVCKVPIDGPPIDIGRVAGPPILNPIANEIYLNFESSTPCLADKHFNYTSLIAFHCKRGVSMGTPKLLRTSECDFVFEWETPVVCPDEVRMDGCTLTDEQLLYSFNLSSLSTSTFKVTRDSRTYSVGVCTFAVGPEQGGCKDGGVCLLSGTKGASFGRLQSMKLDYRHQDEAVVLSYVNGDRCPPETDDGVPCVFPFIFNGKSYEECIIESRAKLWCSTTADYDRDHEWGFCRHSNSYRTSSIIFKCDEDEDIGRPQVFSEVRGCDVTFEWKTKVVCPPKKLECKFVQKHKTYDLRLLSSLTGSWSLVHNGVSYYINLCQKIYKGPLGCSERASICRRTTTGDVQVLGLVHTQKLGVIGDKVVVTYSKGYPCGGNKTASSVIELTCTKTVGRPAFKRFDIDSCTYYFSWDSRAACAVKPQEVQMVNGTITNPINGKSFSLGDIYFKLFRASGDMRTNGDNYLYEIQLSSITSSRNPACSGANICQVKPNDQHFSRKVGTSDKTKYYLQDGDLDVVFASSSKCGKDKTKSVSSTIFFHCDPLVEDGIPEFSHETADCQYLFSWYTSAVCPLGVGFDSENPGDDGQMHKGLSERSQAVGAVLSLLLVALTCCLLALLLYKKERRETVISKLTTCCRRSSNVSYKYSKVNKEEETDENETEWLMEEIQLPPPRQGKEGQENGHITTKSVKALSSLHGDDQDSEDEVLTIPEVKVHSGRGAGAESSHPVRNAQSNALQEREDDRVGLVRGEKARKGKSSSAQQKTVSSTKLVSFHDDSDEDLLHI

Row | Compound | uptake of IgG-AF647 with conjugates in presence of M6PR or ASGPR inhibitor [1] | relative binding affinity for the CIM6PR, compared to mannose-6-phosphate glycans [2] | serum stability compared to mannose-6-phosphate glycans [3]
1 | CC(=O)N[C@H]1C(O)O[C@H](CO)[C@H](O)[C@@H]1O (mixture of isomers) [mGalNAc, monomeric GalNAc] | Uptake was reduced | – | –
2 | C=CC(=O)OC[C@@H](O)[C@@H](O)[C@H](O)[C@H](O)C=O [Mannose-6-acrylate glycans, Mannose-6-acrylate] | – | 0.7 | better serum stability
3 | O=P(O)(O)OC[C@H]1OC(O)[C@@H](O)[C@@H](O)[C@@H]1O (some centres unmarked) [mM6P, monomeric M6P] | Uptake was reduced | – | –
4 | Mannose-6-carboxylate [Mannose-6-carboxylate glycans] | – | 0.3 | –
